Results from publication PMC5012566, “A Cell-Based Assay for Measuring Endogenous BcrAbl Kinase Activity and Inhibitor Resistance” (PLoS ONE, 2016).

Experiments:
K562-NR cells [1] = test: cells; conditions: Homo sapiens, read-out: Growth Inhibition IC50 (95% CI)
K562-DR cells = test: cells; conditions: Homo sapiens, read-out: Growth Inhibition IC50 (95% CI)
K562-NR cells [2] = conditions: cross-resistance, relative to parental
[3] = system: chronic myeloid leukemia (CML); conditions: cited from earlier work
K562 cells = conditions: parental K562 cells; 10 nM dasatinib; Fig 6C

SMILES	IC50 (K562-NR cells [1])	IC50 (K562-DR cells)	cell growth inhibition (in words) (K562-NR cells [2])	response rate [3]	cell growth at the level consistent with resistant culture conditions (K562 cells)
Cc1cn(-c2cc(NC(=O)c3ccc(C)c(Nc4nccc(-c5cccnc5)n4)c3)cc(C(F)(F)F)c2)cn1 [nilotinib]	718 nM	25 nM	–	–	–
Cc1ccc(NC(=O)c2ccc(CN3CCN(C)CC3)cc2)cc1Nc1nccc(-c2cccnc2)n1 [imatinib]	–	–	unable to inhibit growth at any of the concentrations tested	80%	–
Cc1nc(Nc2ncc(C(=O)Nc3c(C)cccc3Cl)s2)cc(N2CCN(CCO)CC2)n1 [dasatinib]	3.6 nM	–	somewhat less potent	–	lack of growth
